In patent US6017933A, “Mannich bases of conjugated styryl ketones” (University of Saskatchewan Technologies Inc., priority 1999, dated 2000):
“Also recorded” adds a separate entry of the source.

Experiments:
L1210 cells = test: Cytotoxicity, murine L1210 leukemic cells; assay type: cell-based; conditions: Mus musculus, mean
[1] = test system: P388 lymphocytic leukemia; test: Murine P388 lymphocytic leukemia in vivo screen
Description: In order to evaluate whether these promising results could be translated into in vivo activity, two representative compounds 9d and 10a were chosen. […] These two compounds were examined in the murine P388 screen and against certain human tumors in athymic mice.
(§1) The compounds were examined by the Developmental Therapeutics Program, National Cancer Institute, U.S.A. The murine P388 lymphocytic leukemia assay was conducted by a reported known method and the maximum ILS figures for 9d and 10a were 5 and 20% respectively using doses of 54 and 6.7 mg/kg respectively. An increase of 20% or more in the life spans is considered to be statistically significant. A reference drug 5-fluorouracil has an ILS of >35 using a dose of 20 mg/kg when given intraperitoneally for five days. Passage of human tumors in athymic mice was undertaken by a known method. No definitions of activity are available but as a general rule compounds causing a 60% reduction in tumor weights in one of these screens would be evaluated further.

COLO 205 = COLO 205 human colon tumor xenograft in athymic mice; assay type: in vivo
Description: as §1

SW-620 = SW-620 human colon tumor xenograft in athymic mice; assay type: in vivo; conditions: 80 mg/kg
Description: as §1

NCI-H522 = NCI-H522 human non-small cell lung tumor xenograft in athymic mice; assay type: in vivo; conditions: 80 mg/kg
Description: as §1

LOX IMVI = LOX IMVI human melanoma xenograft in athymic mice; assay type: in vivo, human tumor in athymic mice; conditions: 80 mg/kg
Description: as §1

human Jurkat T cells [2] = test: Growth inhibition of Jurkat T cells, trypan blue exclusion test; assay type: cell-based; conditions: read-out: growth of Jurkat T cells inhibited by 50% (IC50), 48 hours, 37° C., trypan blue
Description: All cell cultures used were maintained in RPMI 1640 medium, pH 7.4 supplanted with 10% fetal bovine serum and 50 μg/ml of gentamycin in 25 ml culture flasks at 37° C. in a humidified gas mixture of 5% carbon dioxide balanced with air and were passaged three times a week.
(§2) Cell viability was determined by the trypan blue exclusion test according to a literature procedure (Duke and Cohen, 1992). […] A flask containing ~10^6 cells/ml and 8 or […] of DMSO was used as the control. […] After 48 hours, cells were counted using a haemocytometer. The percentage of growth inhibition was calculated as follows: (C-T/C)×100 where C is the mean cell number in the control and T is the mean cell number in each treatment. […] All experiments were performed in triplicate.

[3] = test system: Jurkat T, LV-50, H-9 and Molt-3 cells; test: Cell viability of Jurkat T, LV-50, H-9 and Molt-3 cells; assay type: cell-based; conditions: 10 μM, 24 hour
Description: FIG. 5 is a graph showing percent viability of Jurkat T, LV-50, H-9 and Molt 3 cells after exposure to 10 μM of compound 9d for a 24 hour period with error bars representing mean±standard deviation in three separate experiments;
as §2

human Jurkat T cells [4] = test: DNA fragmentation by agarose gel electrophoresis; assay type: cell-based; conditions: Compound 9d 6 and 10 μM; melphalan 10 μM
CEM cells = test: Cytotoxicity, CEM human T-lymphocytes
Molt 4/C8 cells = test: Cytotoxicity, Molt 4/C8 human T-lymphocytes
P388 cells = test: Cytotoxicity, murine P388 leukemic cells (P388 D1); conditions: read-out: P388 cells IC50
human tumors = test: Cytotoxicity, human tumor cell line panel (approximately 55 lines)
human Jurkat T cells [5] = test: Apoptosis, fluorescence microscopy with acridine orange and ethidium bromide; conditions: for percentage of apoptotic cells: 17 hours, control 4.4%
[6] = test system: proton translocating ATPase of Saccharomyces cerevisiae; conditions: cited from earlier work

CCN1CCC(O)(/C=C/c2ccc(C)cc2)C(C(=O)/C=C/c2ccc(C)cc2)C1 (stereo not shown) [Compound 9d]
IC50 (L1210 cells): 6.08 µM | maximum ILS, murine P388 ([1]; 54 mg/kg): 5% | activity in the murine P388 screen ([1]; in words): inactive | % ILS (COLO 205; COLO 205, 200 mg/kg, increase in median time to reach a certain size): 28% | percent reduction in median tumor weight (COLO 205; COLO 205, 200 mg/kg, percentage reduction of median tumor weight): 57% | reduction in the weight of the human COLO 205 colon tumor (COLO 205; athymic mice, Example 5): 60% | % ILS (SW-620): 9% | % T/C (SW-620): 32% | % ILS (NCI-H522): -2% | % T/C (NCI-H522): 23% | % ILS (LOX IMVI): 12% | % T/C (LOX IMVI): 35% | IC50 (human Jurkat T cells [2]): 3.46 µM | sensitivity of cell lines [3]: Jurkat T cells were the most sensitive in its response, although all cell cultures were affected | DNA ladder / DNA fragmentation (human Jurkat T cells [4]): did not show any DNA ladder; also recorded: no DNA fragmentation was detected | IC50 (CEM cells; Homo sapiens, CCRF-CEM, read-out: CEM cells IC50): 14 µM | TIL1210 (CEM cells) (CEM cells; IC50 T-lymphocytes (CEM)/IC50 L1210): 2.31 | TIP388 (CEM cells) (CEM cells; IC50 T-lymphocytes (CEM)/IC50 P388): 6.69 | TIht (CEM cells) (CEM cells; IC50 T-lymphocytes (CEM)/IC50 human tumors): 2.80 | cytotoxicity to murine leukemic and human tumor cells vs T-lymphocytes (Molt 4/C8 cells): greater cytotoxicity to murine leukemic cells and human tumor cell lines than to T-lymphocytes | TIL1210 (Molt 4/C8 cells) (Molt 4/C8 cells; IC50 T-lymphocytes (Molt 4/C8)/IC50 L1210): 4.44 | TIP388 (Molt 4/C8 cells) (Molt 4/C8 cells; IC50 T-lymphocytes (Molt 4/C8)/IC50 P388): 12.85 | TIht (Molt 4/C8 cells) (Molt 4/C8 cells; IC50 T-lymphocytes (Molt 4/C8)/IC50 human tumors): 5.39 | IC50 (Molt 4/C8 cells; read-out: Molt 4/C8 cells IC50): 27 µM | IC50 (P388 cells): 2100 nM | selective/preferential cytotoxicity towards colon cancer cells (human tumors; human tumor screen): preferential cytotoxicity towards human colon cells; also recorded: preferential cytotoxicity to colon; also recorded: selective toxicity to human colon cancer cells | IC50 (human tumors; read-out: human tumors IC50, mean graph midpoint, approximately 55 cell lines, hydrobromide salts used for 4a, 11a-e): 5.01 µM | apoptotic index / apoptosis induction (in words) (human Jurkat T cells [5]): the apoptotic index increased almost two fold; also recorded: greater apoptotic index than melphalan; also recorded: more potent inducer of apoptosis; also recorded: potent apoptotic agent | time after which apoptotic effects were detectable (human Jurkat T cells [5]): 3 h | morphological features (human Jurkat T cells [5]; 6 μM, 17 h): characteristic blebbing and apoptotic bodies | percentage of apoptotic cells (human Jurkat T cells [5]; 6 μM): 22% | percentage of apoptotic cells (human Jurkat T cells [5]; 10 μM): 43% | death of treated cells (human Jurkat T cells [5]; 48 hours): all the treated cells had died

COc1ccc2[nH]c([S+]([O-])Cc3ncc(C)c(OC)c3C)nc2c1 (stereo not shown) [omeprazole]
inhibition of proton translocating ATPase [6]: inhibited the proton translocating ATPase of Saccharomyces cerevisiae
